# In US10611750B2, “Tetrahydroquinoline compositions as bet bromodomain inhibitors” (FORMA Therapeutics, Inc., priority 2013, dated 2020):
# Experiments:
# [1] = system: acute myelocytic leukemia (AML) cell line MV4-11; experiment: Oncology cell growth assay (3-day proliferation, CellTiter-Glo); assay type: cell-based; details: Homo sapiens, MV4-11, 72 h, MV4-11 cells, 3000 cells/well, compounds listed under IC50 range headings, read-out: MV411 IC50 (gIC50, inhibition of proliferation)
# Method in brief: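 MV4-11 AML cells (RPMI 1640, 10% FBS) plated at 3000 cells/well and exposed 72 h to compound at final 10 to 0.0045 μM (3-fold series). Viability read by CellTiter-Glo luminescence; gIC50 from four-parameter logistic fit between DMSO control and no-cell background.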
# [2] = target: T1, BRD4 Bromodomain 1 (BRD4 BD1) (Homo sapiens, UniProt O60885); experiment: AlphaScreen binding assay, BRD4 BD1; details: His-tagged BRD4 BD1 50 nM, biotinylated H4 (1-21) K5/8/12/16 tetra-acetylated peptide 50 nM, compounds listed under IC50 range headings
# T1 construct: 44-168 and BRD4 BD2
# Method in brief: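 An AlphaScreen competition format was used with His-BRD4 BD1 or BD2 and biotin-H4 K5/8/12/16-acetyl peptide, each at matched final levels of 50 nM (BD1) or 100 nM (BD2). Incubation in HEPES/NaCl buffer with 0.1% BSA and 0.01% Triton X-100 ran ≥1 h before IC50 determination.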
IC50 [1] [nM],IC50 [2] [nM],Compound
< 500,1000 to 10000,"C[C@H]1CCc2c(ccc(-c3cnoc3)c2Oc2ccccc2)N1C(=O)C1CC1 [I-231, (S)-cyclopropyl(6-(isoxazol-4-yl)-2-methyl-5-phenoxy-3,4-dihydroquinolin-1 (2H)-yl)methanone]"
< 500,100 to 1000,"COC(=O)N1c2ccc(-c3cn(C)nn3)c(Oc3ccccc3)c2CC[C@@H]1C [I-232, (S)-methyl 2-methyl-6-(1-methyl-1H-1,2,3-triazol-4-yl)-5-phenoxy-3,4-dihydroquinoline-1(2H)-carboxylate]"
< 500,100 to 1000,"CC(=O)N1c2ccc(-c3cn(C)nn3)c(Oc3ccccc3)c2CC[C@@H]1C [I-233, (S)-1-(2-methyl-6-(1-methyl-1H-1,2,3-triazol-4-yl)-5-phenoxy-3,4-dihydroquinolin-1(2H)-yl)ethanone]"
< 500,1000 to 10000,"COc1cccc(Oc2c(-c3cn(C)nn3)ccc3c2CC[C@H](C)N3C(=O)C2CC2)c1 [I-234, (S)-cyclopropyl(5-(3-methoxyphenoxy)-2-methyl-6-(1-methyl-1H-1,2,3-triazol-4-yl)-3,4-dihydroquinolin-1 (2H)-yl)methanone]"
< 500,1000 to 10000,"C[C@H]1CCc2c(ccc(-c3cn(C)nn3)c2Oc2cccc(F)c2)N1C(=O)C1CC1 [I-235, (S)-cyclopropyl(5-(3-fluorophenoxy)-2-methyl-6-(1-methyl-1H-1,2,3-triazol-4-yl)-3,4-dihydroquinolin-1 (2H)-yl)methanone]"
< 500,100 to 1000,"C[C@H]1CCc2c(ccc(-c3cn(C)nn3)c2Oc2ccc(F)cc2)N1C(=O)C1CC1 [I-236, (S)-cyclopropyl(5-(4-fluorophenoxy)-2-methyl-6-(1-methyl-1H-1,2,3-triazol-4-yl)-3,4-dihydroquinolin-1 (2H)-yl)methanone]"
< 500,1000 to 10000,"C[C@H]1CCc2c(Oc3ccccc3)c(-c3cn[nH]c3)cc(F)c2N1C(=O)C1CC1 [I-238, (S)-cyclopropyl(8-fluoro-2-methyl-5-phenoxy-6-(1H-pyrazol-4-yl)-3,4-dihydroquinolin-1(2H)-yl)methanone]"
< 500,1000 to 10000,"COC(=O)N1c2c(F)cc(-c3cnn(C4CC4)c3)c(Oc3ccccc3)c2CC[C@@H]1C [I-239, (S)-methyl 6-(1-cyclopropyl-1H-pyrazol-4-yl)-8-fluoro-2-methyl-5-phenoxy-3,4-dihydroquinoline-1(2H)-carboxylate]"
< 500,100 to 1000,"COC(=O)N1c2c(F)cc(-c3cn[nH]c3)c(Oc3ccccc3)c2CC[C@@H]1C [I-240, (S)-methyl 8-fluoro-2-methyl-5-phenoxy-6-(1H-pyrazol-4-yl)-3,4-dihydroquinoline-1(2H)-carboxylate]"
< 500,100 to 1000,"CC(=O)N1c2c(F)cc(-c3cnn(C4CC4)c3)c(Oc3ccccc3)c2CC[C@@H]1C [I-241, (S)-1-(6-(1-cyclopropyl-1H-pyrazol-4-yl)-8-fluoro-2-methyl-5-phenoxy-3,4-dihydroquinolin-1(2H)-yl)ethanone]"
< 500,100 to 1000,"CC(=O)N1c2c(F)cc(-c3cn[nH]c3)c(Oc3ccccc3)c2CC[C@@H]1C [I-242, (S)-1-(8-fluoro-2-methyl-5-phenoxy-6-(1H-pyrazol-4-yl)-3,4-dihydroquinolin-1(2H)-yl)ethanone]"
< 500,100 to 1000,"C[C@H]1CCc2c(ccc(C3CC3)c2Oc2ccccc2)N1C(=O)C1CC1 [I-243, (S)-cyclopropyl(6-cyclopropyl-2-methyl-5-phenoxy-3,4-dihydroquinolin-1 (2H)-yl) methanone]"
> 1000,≥ 10000,"COC(=O)N1c2ccc(C3CC3)c(Oc3ccccc3)c2CC[C@@H]1C [I-244, (S)-methyl 6-cyclopropyl-2-methyl-5-phenoxy-3,4-dihydroquinoline-1(2H)-carboxylate]"
< 500,100 to 1000,"COC(=O)N1c2ccc(-c3cnn(C4CC5CN(C)CC5C4)c3)c(Oc3ccc(F)cc3)c2CC[C@@H]1C (stereo partly drawn) [I-250, (2S)-methyl 5-(4-fluorophenoxy)-2-methyl-6-(1-(2-methyl-octahydrocyclopenta[c]pyrrol-5-yl)-1H-pyrazol-4-yl)-3,4-dihydroquinoline-1(2H)-carboxylate]"
< 500,100 to 1000,"C[C@H]1CCc2c(ccc(-c3cnn(C4CCNCC4)c3)c2Oc2ccccc2F)N1C(=O)C1CC1 [I-260, (S)-cyclopropyl(5-(2-fluorophenoxy)-2-methyl-6-(1-(piperidin-4-yl)-1H-pyrazol-4-yl)-3,4-dihydroquinolin-1(2H)-yl)methanone]"
< 500,100 to 1000,"COC(=O)N1c2ccc(-c3cnn(C4CNC4)c3)c(Oc3ccccc3F)c2CC[C@@H]1C [I-261, (S)-methyl 6-(1-(azetidin-3-yl)-1H-pyrazol-4-yl)-5-(2-fluorophenoxy)-2-methyl-3,4-dihydroquinoline-1(2H)-carboxylate]"
< 500,100 to 1000,"C[C@H]1CCc2c(ccc(-c3cnn(C4CCNCC4)c3)c2Oc2ccc(F)cc2F)N1C(=O)C1CC1 [I-264, (S)-cyclopropyl (5-(2,4-difluorophenoxy)-2-methyl-6-(1-(piperidin-4-yl)-1H-pyrazol-4-yl)-3,4-dihydroquinolin-1 (2H)-yl)methanone]"
< 500,100 to 1000,"C[C@H]1CCc2c(ccc(-c3cnn(C4CNC4)c3)c2Oc2ccc(F)cc2F)N1C(=O)C1CC1 [I-265, (S)-(6-(1-(azetidin-3-yl)-1H-pyrazol-4-yl)-5-(2,4-difluorophenoxy)-2-methyl-3,4-dihydroquinolin-1(2H)-yl)(cyclopropyl)methanone]"
< 500,100 to 1000,"COC(=O)N1c2ccc(-c3cnn(C4CNC4)c3)c(Oc3ccc(F)cc3F)c2CC[C@@H]1C [I-266, (S)-methyl 6-(1-(azetidin-3-yl)-1H-pyrazol-4-yl)-5-(2,4-difluorophenoxy)-2-methyl-3,4-dihydroquinoline-1(2H)-carboxylate]"
< 500,100 to 1000,"C[C@H]1CCc2c(ccc(-c3cnn(C4CCNCC4)c3)c2Oc2cccc(F)c2F)N1C(=O)C1CC1 [I-267, (S)-cyclopropyl(5-(2,3-difluorophenoxy)-2-methyl-6-(1-(piperidin-4-yl)-1H-pyrazol-4-yl)-3,4-dihydroquinolin-1(2H)-yl)methanone]"
< 500,100 to 1000,"COC(=O)N1c2ccc(-c3cnn(C4CCNCC4)c3)c(Oc3cccc(F)c3F)c2CC[C@@H]1C [I-269, (S)-methyl 5-(2,3-difluorophenoxy)-2-methyl-6-(1-(piperidin-4-yl)-1H-pyrazol-4-yl)-3,4-dihydroquinoline-1(2H)-carboxylate]"
< 500,100 to 1000,"COC(=O)N1c2ccc(-c3cnn(C4CNC4)c3)c(Oc3cc(F)ccc3F)c2CC[C@@H]1C [I-271, (S)-methyl 6-(1-(azetidin-3-yl)-1H-pyrazol-4-yl)-5-(2,5-difluorophenoxy)-2-methyl-3,4-dihydroquinoline-1(2H)-carboxylate]"
< 500,100 to 1000,"C[C@H]1CCc2c(ccc(-c3cnn(C4CNC4)c3)c2Oc2cc(F)ccc2F)N1C(=O)C1CC1 [I-272, (S)-(6-(1-(azetidin-3-yl)-1H-pyrazol-4-yl)-5-(2,5-difluorophenoxy)-2-methyl-3,4-dihydroquinolin-1(2H)-yl)(cyclopropyl)methanone]"
< 500,100 to 1000,"COC(=O)N1c2ccc(-c3cnn(C4CCNCC4)c3)c(Oc3cc(F)ccc3F)c2CC[C@@H]1C [I-273, (S)-methyl 5-(2,5-difluorophenoxy)-2-methyl-6-(1-(piperidin-4-yl)-1H-pyrazol-4-yl)-3,4-dihydroquinoline-1(2H)-carboxylate]"
< 500,100 to 1000,"C[C@H]1CCc2c(ccc(-c3cnn(C4CCNCC4)c3)c2Oc2cc(F)ccc2F)N1C(=O)C1CC1 [I-274, (S)-cyclopropyl(5-(2,5-difluorophenoxy)-2-methyl-6-(1-(piperidin-4-yl)-1H-pyrazol-4-yl)-3,4-dihydroquinolin-1 (2H)-yl)methanone]"
< 500,100 to 1000,"CC(=O)N1c2ccc(-c3cnn(C4CCNCC4)c3)c(Oc3ccc(F)c(F)c3)c2CC[C@@H]1C [I-275, (S)-1-(5-(3,4-difluorophenoxy)-2-methyl-6-(1-(piperidin-4-yl)-1H-pyrazol-4-yl)-3,4-dihydroquinolin-1 (2H)-yl)ethanone]"
< 500,100 to 1000,"CC(=O)N1c2ccc(-c3cnn(C4CCNCC4)c3)c(Oc3cc(F)ccc3F)c2CC[C@@H]1C [I-276, (S)-1-(5-(2,5-difluorophenoxy)-2-methyl-6-(1-(piperidin-4-yl)-1H-pyrazol-4-yl)-3,4-dihydroquinolin-1(2H)-yl)ethanone]"

Compound,IC50 [1] [nM],IC50 [2] [nM]
"COC(=O)N1c2ccc(-c3cnn(C4CC5CN(C)CC5C4)c3)c(OC3CCC3)c2CC[C@@H]1C (stereo partly drawn) [I-248, (2S)-methyl 5-cyclobutoxy-2-methyl-6-(1-(2-methyl-octahydrocyclopenta[c]pyrrol-5-yl)-1H-pyrazol-4-yl)-3,4-dihydroquinoline-1(2H)-carboxylate]",< 500,100 to 1000
"C[C@H]1CCc2c(ccc(-c3cnn4c3NCC4)c2OC2CCC2)N1C(=O)C1CC1 [I-278, ((2S)-5-cyclobutoxy-6-(2,3-dihydro-1H-pyrazolo[1,5-a]imidazol-7-yl)-2-methyl-3,4-dihydroquinolin-1(2H)-yl)(cyclopropyl)methanone]",< 500,100 to 1000
